From patent US9676789B2, “Aminated derivative of homoharringtonine, preparation method therefor, and application thereof” (HANGZHOU BENSHENG PHARMACEUTICAL CO., LTD., priority 2011, dated 2017)
In brackets after ≈: the same amount, converted by molar mass.

What was measured:
[1] = tested on: H9 (acute lymphoblastic leukemia, ALL); assay: MTT leukemia cell growth inhibition, 72 h; format: cell-based, human; conditions: Homo sapiens, H9, 72 h; for IC50: read-out: IC50; for IC90: read-out: IC90
From the text: (§1) Leukemia cell lines: K562/adr (drug-resistant, chronic myeloid leukemia, CML), NB4 (acute promyelocytic leukemia, AML), Kasumi-1 (acute myeloid leukemia M2 type, AML-M2), Jurkat (acute lymphoblastic leukemia, ALL), all of which are donated by Cancer Research Institute of Zhejiang University, China; and H9 (acute lymphoblastic leukemia, ALL), which is purchased from China Center for Type Culture Collection.
(§2) Obtaining 6000 well-growing leukemia cells and inoculating them into wells of a 96-well cell culture plate. The culture medium is the 1640 cell culture medium containing 10% fetal bovine serum. After adding the homoharringtonine derivatives of different concentrations and mixing uniformly, placing the plate in a carbon dioxide cell incubator (5% CO2) at 37° C. and incubating for 72 hours. Then the viable cell concentration is determined by the MTT method. In this experiment, the cell viability in control group (not treated with any compound) is set as 100%.

[2] = tested on: Jurkat (acute lymphoblastic leukemia, ALL); assay: MTT leukemia cell growth inhibition, 72 h; format: cell-based, human; conditions: Homo sapiens; for IC50: read-out: IC50; for IC90: read-out: IC90
From the text: as §1, §2

[3] = tested on: K562/adr (drug-resistant, chronic myeloid leukemia, CML); assay: MTT leukemia cell growth inhibition, 72 h; format: cell-based, human; conditions: Homo sapiens, K562/Adr; for IC50: read-out: IC50; for IC90: read-out: IC90
From the text: as §1, §2

[4] = tested on: Kasumi-1 (acute myeloid leukemia M2 type, AML-M2); assay: MTT leukemia cell growth inhibition, 72 h; format: cell-based, human; conditions: Homo sapiens, Kasumi-1, 72 h; for IC50: read-out: IC50; for IC90: read-out: IC90
From the text: as §1, §2

[5] = tested on: NB4 (acute promyelocytic leukemia, AML); assay: MTT leukemia cell growth inhibition, 72 h; format: cell-based, human; conditions: Homo sapiens, NB4, 72 h; for IC50: read-out: IC50; for IC90: read-out: IC90
From the text: as §1, §2

[6] = tested on: RPMI8226 (multiple myeloma); assay: MTT multiple myeloma cell growth inhibition, 72 h; format: cell-based, human; conditions: Homo sapiens, RPMI-8226, RPMI8226, 72 h; for IC50: read-out: IC50; for IC90: read-out: IC90
Description: Multiple myeloma and lymphoma cell lines: RPMI8226 (multiple myeloma), purchased from Fuxiang Bio-tech Co. Ltd., Shanghai, China.
as §2, with “method.” for “method. In this experiment, the cell viability in control group (not treated with any compound) is set as 100%.”

A549 (human lung cancer) = assay: MTT solid tumor cell growth inhibition, 72 h; format: cell-based; conditions: Homo sapiens, A549, 72 h; for IC50: read-out: IC50; for IC90: read-out: IC90
Description: (§3) Human solid tumor cell lines: Hep-2 ([…]), A549 (human lung cancer), CaES-17 (esophageal cancer cell), PC-3 (prostate cancer), CNE (nasopharyngeal carcinoma cell), and SK-OV-3 (ovarian cancer cell), all of which are purchased from China Center For Type Culture Collection; RKO (human colon adenocarcinoma cell), MGC 803 (human gastric cancer cell), MG63 (osteosarcoma) and U87 MG (malignant glioma cell), all of which are purchased from Fuxiang Bio-tech Co. Ltd., Shanghai, China; PANC-1 (pancreatic cancer), Huh7 (human liver cancer cell), Becap37 (human breast cancer cell), and Hela (human cervical cancer cell), all of which are donated by Cancer Research Institute of Zhejiang University, China.
(§4) Obtaining 4000 well-growing human solid tumor cells and inoculating them into wells of a 96-well cell culture plate. The culture medium is DMEM High Glucose cell culture medium containing 10% fetal bovine serum. The plate is placed in a carbon dioxide cell incubator (5% CO2) at 37° C. and incubating for 24 hours. After adding the homoharringtonine derivatives of different concentration and mixing uniformly, the plate is placed in a carbon dioxide cell incubator (5% CO2) at 37° C. and incubating for 72 hours. Then the viable cell concentration is determined by the MTT method and the cell viability (%) after drug treatment is calculated. In this experiment, the cell viability of control group (not treated with any compound) is set as 100%.

[7] = tested on: Becap37 (human breast cancer cell); assay: MTT solid tumor cell growth inhibition, 72 h; format: cell-based; conditions: Homo sapiens, Becap37, 72 h; for IC50: read-out: IC50; for IC90: read-out: IC90
Description: as §3, §4

[8] = tested on: Huh7 (human liver cancer cell); assay: MTT solid tumor cell growth inhibition, 72 h; format: cell-based; conditions: Homo sapiens, Huh-7, Huh7, 72 h; for IC50: read-out: IC50; for IC90: read-out: IC90
Description: as §3, §4

MG63 (osteosarcoma) = assay: MTT solid tumor cell growth inhibition, 72 h; format: cell-based, human; conditions: Homo sapiens, MG 63, 72 h; for IC50: read-out: IC50; for IC90: read-out: IC90
Description: as §3, §4

[9] = tested on: PANC-1 (pancreatic cancer); assay: MTT solid tumor cell growth inhibition, 72 h; format: cell-based, human; conditions: Homo sapiens, PANC-1, 72 h; for IC50: read-out: IC50; for IC90: read-out: IC90
Description: as §3, §4

[10] = tested on: MGC 803 (human gastric cancer cell); assay: MTT solid tumor cell growth inhibition, 72 h; format: cell-based; conditions: Homo sapiens, MGC 803, 72 h; for IC50: read-out: IC50; for IC90: read-out: IC90
Description: as §3, §4

SMILES	IC50 [1]	IC90 [1]	IC50 [2]	IC90 [2]	IC50 [3]	IC90 [3]	IC50 [4]	IC90 [4]	IC50 [5]	IC90 [5]	IC50 [6]	IC90 [6]	IC50 (A549 (human lung cancer))	IC90 (A549 (human lung cancer))	IC50 [7]	IC90 [7]	IC50 [8]	IC90 [8]	IC50 (MG63 (osteosarcoma))	IC90 (MG63 (osteosarcoma))	further results
COC1=C[C@]23CCCN2CCc2cc4c(cc2[C@@H]3[C@@H]1OC(=O)[C@@](O)(CCCC(C)(C)O)CC(=O)N1CCCC(C)C1)OCO4 (stereo partly shown) [BS-HH-038]	7.37 µg/mL (≈ 12 µM)	> 16 µg/mL	1.47 µg/mL (≈ 2.4 µM)	16 µg/mL (≈ 26.1 µM)	> 16 µg/mL	> 16 µg/mL	2 µg/mL (≈ 3.26 µM)	12 µg/mL (≈ 19.6 µM)	0.32 µg/mL (≈ 0.522 µM)	4.24 µg/mL (≈ 6.92 µM)	1.22 µg/mL (≈ 1.99 µM)	16 µg/mL (≈ 26.1 µM)	5.72 µg/mL (≈ 9.33 µM)	> 16 µg/mL	1.95 µg/mL (≈ 3.18 µM)	> 16 µg/mL	16 µg/mL (≈ 26.1 µM)	> 16 µg/mL	3.71 µg/mL (≈ 6.05 µM)	> 16 µg/mL	IC50 [9]: 8.83 µg/mL (≈ 14.4 µM); IC90 [9]: > 16 µg/mL
CCN1CCN(C(=O)C[C@](O)(CCCC(C)(C)O)C(=O)O[C@@H]2C(OC)=C[C@]34CCCN3CCc3cc5c(cc3[C@H]24)OCO5)CC1 [BS-HH-041]	3.2 µg/mL (≈ 5.1 µM)	> 16 µg/mL	0.89 µg/mL (≈ 1.42 µM)	> 16 µg/mL	> 16 µg/mL	> 16 µg/mL	2.79 µg/mL (≈ 4.44 µM)	15 µg/mL (≈ 23.9 µM)	1.85 µg/mL (≈ 2.95 µM)	16 µg/mL (≈ 25.5 µM)	1.96 µg/mL (≈ 3.12 µM)	13.4 µg/mL (≈ 21.3 µM)	8.11 µg/mL (≈ 12.9 µM)	> 16 µg/mL	0.9 µg/mL (≈ 1.43 µM)	> 16 µg/mL	16 µg/mL (≈ 25.5 µM)	> 16 µg/mL	1.97 µg/mL (≈ 3.14 µM)	> 16 µg/mL	IC50 [10]: 1 µg/mL (≈ 1.59 µM); IC90 [10]: 11.8 µg/mL (≈ 18.9 µM); IC50 [9]: 6.35 µg/mL (≈ 10.1 µM); IC90 [9]: > 16 µg/mL
COC1=C[C@]23CCCN2CCc2cc4c(cc2[C@@H]3[C@@H]1OC(=O)[C@@](O)(CCCC(C)(C)O)CC(=O)NCc1ccco1)OCO4 [BS-HH-043]	> 16 µg/mL	> 16 µg/mL	13 µg/mL (≈ 21.3 µM)	> 16 µg/mL	> 16 µg/mL	> 16 µg/mL	11.1 µg/mL (≈ 18.1 µM)	> 16 µg/mL	15 µg/mL (≈ 24.6 µM)	> 16 µg/mL	> 16 µg/mL	> 16 µg/mL	> 16 µg/mL	> 16 µg/mL	> 16 µg/mL	> 16 µg/mL	> 16 µg/mL	> 16 µg/mL	> 16 µg/mL	> 16 µg/mL	IC50 [10]: > 16 µg/mL; IC90 [10]: > 16 µg/mL; IC50 [9]: > 16 µg/mL; IC90 [9]: > 16 µg/mL
COC1=C[C@]23CCCN2CCc2cc4c(cc2[C@@H]3[C@@H]1OC(=O)[C@@](O)(CCCC(C)(C)O)CC(=O)N1CCCCC1)OCO4 [BS-HH-051]	7.26 µg/mL (≈ 12.1 µM)	> 16 µg/mL	1.3 µg/mL (≈ 2.17 µM)	> 16 µg/mL	> 16 µg/mL	> 16 µg/mL	2 µg/mL (≈ 3.34 µM)	16 µg/mL (≈ 26.7 µM)	1.5 µg/mL (≈ 2.51 µM)	16 µg/mL (≈ 26.7 µM)	1.7 µg/mL (≈ 2.84 µM)	16 µg/mL (≈ 26.7 µM)	6.96 µg/mL (≈ 11.6 µM)	> 16 µg/mL	1.99 µg/mL (≈ 3.32 µM)	> 16 µg/mL	> 16 µg/mL	> 16 µg/mL	2.72 µg/mL (≈ 4.54 µM)	> 16 µg/mL	IC50 [10]: 1.9 µg/mL (≈ 3.17 µM); IC90 [10]: 26.7 µg/mL (≈ 44.6 µM); IC50 [9]: 6.84 µg/mL (≈ 11.4 µM); IC90 [9]: > 16 µg/mL
